The values below come from US6962945B2, “N-aryloxypropanolyl-N′-phenethyl-urea” (Council of Scientific and Industrial Research, priority 2004, dated 2005).

SMILES strings stand for the structures. “Also recorded” adds a separate entry of the source.

This data set deals with adult male Sprague Dawley rats. Kind of data set: appetite suppressant activity on scheduled fed rat model of appetite. Format: in vivo. To be noted: 20 μmol/kg, by oral route; for decrease in food intake as compared to food intake in the control group: fat rich diet 3 h daily, 30 min prior to food; for change in gross behaviour: observed during the period of feeding. Here is the method:
The pharmacological evaluation of the test compounds of general formula 3 was carried out by the following protocol.
The appetite suppressant activity of test compounds was tested on scheduled fed rat model of appetite. The study was conducted in adult male Sprague Dawley rats, weighing 175-200 g on arrival). The animals were housed in transparent cages of Bayer Makrolon type 3118 measuring 425×266×180 with floor area 800 cm^2. In each cage one rat was kept. A special fat rich diet (Diet #12451, Research Diets, NJ, USA) was provided only for 3 h (11 am-2 pm) daily [no diet in rest of the period]. Water was provided for 24 h. Diet was weighed prior to and after observation period by an electronic [Digital display] balance. Food intake was recorded by calculating the difference between prior and after weight of diet. Rats were weighed weekly after feeding. Rats were provided 16 g of diet daily and within 12-14 days animals achieved base line food intake (12-14 g) with gain in body weight (230-250 g) indicating adaptation to scheduled feeding. Only those rats that adapted to schedule feeding were used in the study. Rat showing significant less food intake and weight gain as compared to others was excluded from the study.
Thereafter, tests compounds dissolved in 10% DMSO aqueous solution and given in dose of 20 μmol/kg, by oral route. The test compounds were administered 30 min prior to food. Each test compounds were given in 5 rats. Diet and water was weighed at hourly interval in control and compound treated rats. During the period of feeding the gross behavior of rat was also observed.
The significance of difference between the food intake of treated and control groups was determined by unpaired Student's test [Two tailed p value].

For `CC(C)CC(N(C)C)C1(c2ccc(Cl)cc2)CCC1` (centres unmarked) [Sibutramine, reference compound], the “decrease in food intake as compared to food intake in the control group” value (from here on “decrease in food intake”) was determined as 38.57%.

In the case of `O=C(NCCc1ccccc1)NCC(O)COc1ccc(C(F)(F)F)cc1` (centres unmarked) [compound 3a, N-[2-hydroxy-3-(4-trifluoromethylphenoxy)propyl]-N′-2-phenethyl-urea], the “activity compared with Sibutramine” value is reported as “comparable; also recorded: same activity as Sibutramine”, the “change in water intake” value is “did not cause any significant change”, the “change in gross behaviour” value is on record as “did not cause any significant change” and the “decrease in food intake” value was determined as 41.42%.

In the case of `COc1ccc(OCC(O)CNC(=O)NCCc2ccccc2)cc1` (centres unmarked) [compound 3j, N-[2-hydroxy-3-(4-methoxyphenoxy)propyl]-N′-2-phenethyl-urea], the “change in water intake” value is listed as “did not cause any significant change”, the “change in gross behaviour” value was “did not cause any significant change” and the “decrease in food intake” value was 31.82%.

With `OC(CNC(=S)NCCc1ccccc1)COc1ccc(C(F)(F)F)cc1` (centres unmarked) [compound 3n, N-[2-hydroxy-3-(4-trifluoromethylphenoxy)propyl]-N′-2-phenethyl-thiourea], the “change in water intake” value was “did not cause any significant change”, the “change in gross behaviour” value is given as “did not cause any significant change” and the “decrease in food intake” value came out at 28.4%.
